# From patent US9642839B2, “Substance having tyrosine kinase inhibitory activity and preparation method and use thereof” (Institute of Radiation Medicine, China Academy of Military …, priority 2013, dated 2017)
# What was measured:
# [1] = tested on: MHCC97-L cells; conditions: MHCC97-L s.c. nude mice; 16 mg/kg intraperitoneal, once every 24 h, 6 administrations; by tumor weight
# Description: Establishment of tumor-bearing models: Tumor cells were cultured in T75 flasks until achieving a logarithmical growth. The cells were trypsinized and DMEM medium containing 10% fetal bovine serum was added to terminate trypsinization. The cells were washed with PBS twice, and suspended. Cell concentration was adjusted to 5×10^7 cells/ml, and 150 μl cell suspension was injected into the right flank of the mice. After inoculation, the tumors in the nude mice were observed every day, and the mice were grouped when the tumors reached a volume of 100 mm^3. Each nude mouse was numbered, and the tumor size was measured. The data was entered into EXCEL for sorting and thus excluding extreme values. Random numbers were generated corresponding to the number of the mice, and the mice were randomly grouped using these random numbers.
# Administration: intraperitoneal injection was used at doses of 4 mg/kg, 8 mg/kg, and 16 mg/kg, respectively. The vehicle control group was injected with the same volume of DMSO. The mice received treatment once every 24 h, and a total of 6 times of administrations were given. During administration, changes of tumor size (length×width×width/2) were monitored and recorded in a real-time manner, and the results were expressed as mean±standard deviation.
# [2] = tested on: protein tyrosine kinase (PTK); assay: PTK activity assay with mouse brain tissue extract (ELISA, OD 492 nm); format: biochemical; conditions: at 400 μM
# Description: Tyrosine kinase buffer: 10 mL 1M HEPES (pH 7.5), 0.4 mL 5% BSA/PBS, 0.2 mL 0.1M Na3VO4, and 1 mL 5M NaCl were added to 88.4 mL double distilled water (DDW) (HEPES: Amresco; Na3VO4: Sigma).
# Extraction of tissue extract PTK: mouse brain tissue was quickly removed and weighed, followed by addition of five-fold volumes of pre-cooled homogenization buffer for homogenization. After centrifugation at 4° C., 1,000 g for 10 min, nuclei and cell debris were removed. The supernatant S1 was collected and centrifuged at 4° C., 10,000 g for 20 min, and then the supernatant S2 was collected. The precipitate P2, which represents the crude membrane protein fraction, was retained. S2 included cytoplasmic protein, and was used for testing protein tyrosine kinase (PTK) activity. In the detection of the membrane protein fraction, two-fold volumes of lysis buffer was added to P2, and the resultant was placed on ice for 10 min and centrifuged at 4° C., 10,000 g for 10 min. The supernatant S3, which represents the crude membrane protein including soluble membrane protein, was collected for testing PTK activity. Protein content in cytoplasm or membrane protein was detected by using BCA protein concentration kit (purchased from Beyotime Institute of Biotechnology). The tissue extract was stored at −70° C.
# Coating of 96-well plate: PTK substrate was dissolved and added in an amount of 100 μl to each well. The plate was covered with its lid, and incubated at 4° C. overnight (10-12 hours). Then it was washed with 200 μl elution buffer once, and dried at 37° C. for 2 h. After that, it was washed with 10 mM PBS once, dried at room temperature, and then stored at 4° C. for further use.
# Groups: blank control: 80 μl 1× tyrosine kinase buffer containing ATP+20 μl 1× tyrosine kinase buffer; negative control: 80 μl 1× tyrosine kinase buffer containing ATP+10 μl 1× tyrosine kinase buffer+7 μl tissue extract+3 μl 1× tyrosine kinase buffer; positive control: 80 μl 1× tyrosine kinase buffer containing ATP+10 μl Gefitinib+7 μl tissue extract+3 μl 1× tyrosine kinase buffer (first, the positive drug was allowed to interact with the tyrosine kinase tissue extract at room temperature for 10 min, and meanwhile the tissue extract for the negative control group was also placed at room temperature for 10 min, and then 80 μl 1× tyrosine kinase buffer containing ATP was added to respective groups); vehicle control: 80 μl 1× tyrosine kinase buffer containing ATP+10 μl DMSO+7 μl tissue extract+3 μl 1× tyrosine kinase buffer; drugs to be screened: 80 μl 1× tyrosine kinase buffer containing ATP+10 μl drug to be tested +7 μl tissue extract+3 μl 1× tyrosine kinase buffer.
# PTK activity assay: 1× tyrosine kinase buffer was prepared by evenly mixing 1 mL (10×) tyrosine kinase buffer with 9 mL DDW. The tissue extract was diluted with 1× tyrosine kinase buffer appropriately, mixed with it gently and evenly, and placed on ice. ATP stock solution was dissolved by evenly mixing 48 μl ATP stock solution with 1 mL 1× tyrosine kinase buffer, and placed on ice. The microplate reader was added in respective wells with the groups formulated as above, covered with the lid, and incubated at room temperature for 30 min. The microplate reader was washed with 200 μl elution buffer and tapped until the residual buffer was removed, and this procedure was repeated for five times. To each well, 100 μl antibody diluent (antibody elution buffer diluted at a ratio of 1:2000) was added. The reader was covered with the lid, and incubated at room temperature for 30 min. OPD solution was prepared by addition of 4 mg OPD into a mixture of 4.86 mL 0.1 mol/L citric acid solution and 5.14 mL 0.2 mol/L Na2HPO4 solution, followed by addition of 50 μl 30% H2O2 to allow for complete dissolution, and then was protected from light. The antibody solution was removed. The reader was washed with 200 μl elution buffer and tapped until the residual buffer was removed, and this procedure was repeated for five times.
# [3] = tested on: neuroblastoma SK-N-SH cells; assay: Subcutaneous SK-N-SH tumor-bearing nude mouse model; format: in vivo, nu/nu female mice; conditions: SK-N-SH s.c. nude mice, once every 24 h, 6 administrations
# Source text: Model establishment: nu/nu female mice of 6-8 weeks old were fed under an SPF condition in an animal facility for one week, and then each of them was inoculated with 5×10^6 neuroblastoma SK-N-SH cells (purchased from ATCC) subcutaneously in left flank. Tumor volume was monitored every day after inoculation. Once the size reached ˜100 mm^3, mice were divided into groups.
# Each group included 10 animals.
# [4] = biological target: TrkB (Homo sapiens, UniProt Q16620); assay: Kinase Glo Plus kinase activity assay; format: biochemical
# Description: (§1) 2) Activity of the rest 14 receptor tyrosine kinases was tested by using Kinase Glo Plus assay format, Progmag, and IC50 with regard to kinase activity was calculated based on the inhibition rate.
# [5] = biological target: TrkA (Homo sapiens, UniProt P04629); assay: Kinase Glo Plus kinase activity assay; format: biochemical
# Description: as §1
# [6] = biological target: PDGFR; assay: Kinase Glo Plus kinase activity assay; format: biochemical
# Description: as §1
# [7] = biological target: FGFR; assay: Kinase Glo Plus kinase activity assay; format: biochemical
# Description: as §1
# Sequence of TrkB (Q16620 32-822, species assumed): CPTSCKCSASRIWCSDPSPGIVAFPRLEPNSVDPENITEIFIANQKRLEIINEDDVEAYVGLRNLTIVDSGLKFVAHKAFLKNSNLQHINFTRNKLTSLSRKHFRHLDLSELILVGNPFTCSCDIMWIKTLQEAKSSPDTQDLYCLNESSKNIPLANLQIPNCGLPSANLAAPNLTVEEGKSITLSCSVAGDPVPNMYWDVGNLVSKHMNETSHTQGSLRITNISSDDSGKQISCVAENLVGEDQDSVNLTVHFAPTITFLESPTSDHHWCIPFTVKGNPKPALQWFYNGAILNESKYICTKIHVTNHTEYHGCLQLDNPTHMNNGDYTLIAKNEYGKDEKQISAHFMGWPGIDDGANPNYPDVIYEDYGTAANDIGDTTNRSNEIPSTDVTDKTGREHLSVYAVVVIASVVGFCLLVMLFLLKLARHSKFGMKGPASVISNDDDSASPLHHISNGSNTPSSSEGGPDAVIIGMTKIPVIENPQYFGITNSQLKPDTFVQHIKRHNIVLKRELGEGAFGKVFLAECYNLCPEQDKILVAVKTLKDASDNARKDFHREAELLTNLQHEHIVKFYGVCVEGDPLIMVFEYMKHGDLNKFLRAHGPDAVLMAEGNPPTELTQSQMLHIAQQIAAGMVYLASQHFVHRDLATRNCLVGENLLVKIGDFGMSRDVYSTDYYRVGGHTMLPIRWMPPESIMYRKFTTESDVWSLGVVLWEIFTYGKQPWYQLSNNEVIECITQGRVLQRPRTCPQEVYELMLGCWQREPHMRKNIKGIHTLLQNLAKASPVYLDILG
# Sequence of TrkA (P04629 33-796, species assumed): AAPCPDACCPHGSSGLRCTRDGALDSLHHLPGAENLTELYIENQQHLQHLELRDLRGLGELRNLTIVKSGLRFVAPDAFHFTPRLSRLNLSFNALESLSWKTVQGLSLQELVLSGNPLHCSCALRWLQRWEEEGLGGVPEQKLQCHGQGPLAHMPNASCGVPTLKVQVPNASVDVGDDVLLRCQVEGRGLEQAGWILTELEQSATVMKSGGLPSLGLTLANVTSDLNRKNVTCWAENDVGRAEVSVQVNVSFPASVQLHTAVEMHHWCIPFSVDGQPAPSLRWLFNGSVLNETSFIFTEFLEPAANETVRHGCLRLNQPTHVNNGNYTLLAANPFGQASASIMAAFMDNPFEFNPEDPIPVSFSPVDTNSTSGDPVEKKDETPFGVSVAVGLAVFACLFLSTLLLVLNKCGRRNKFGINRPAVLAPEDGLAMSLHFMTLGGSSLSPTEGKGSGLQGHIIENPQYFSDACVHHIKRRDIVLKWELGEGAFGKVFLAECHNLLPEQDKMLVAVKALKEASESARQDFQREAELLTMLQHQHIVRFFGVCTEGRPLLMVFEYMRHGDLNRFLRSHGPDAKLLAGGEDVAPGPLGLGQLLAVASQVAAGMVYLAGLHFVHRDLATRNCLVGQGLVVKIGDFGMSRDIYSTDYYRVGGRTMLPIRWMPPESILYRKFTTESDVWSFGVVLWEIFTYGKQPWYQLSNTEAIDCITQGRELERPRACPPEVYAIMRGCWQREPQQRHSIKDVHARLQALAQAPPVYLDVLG
compound,measurement,setting,value
"Cc1ccccc1NS(=O)(=O)c1ccc2c(c1)/C(=C/c1nc3ccccc3[nH]1)C(=O)N2 [Indo 5, 3-(1H-benzimidazol-2-methylene)-5-(2-methylphenylaminosulfo)-2-indolone]",Tumor inhibition rate,[1],68%
same,Inhibition rate on tyrosine kinase,[2],53.4%
same,Tumor inhibition rate,[3]; 16 mg/kg gavage,48%
same,Tumor inhibition rate,[3]; 16 mg/kg intraperitoneal,50%
same,IC50,[4],230 nM
same,IC50,[5],22 nM
same,IC50,[6],> 10000 nM
same,IC50,[7],> 10000 nM
